Experiments:
[1] = HPLC determination of retinol (stabilization of active ingredient); format: physicochemical; conditions: UV 323 nm
Experimental: Active ingredients can be detected by any known analytical test method which can be e.g. HPLC, GG, ESR depending on the composition. This effect depends on the active lipophilic ingredient encapsulated.
Test Method used: HPLC Chromatography
Instrumentation: Liquid Chromatograph Agilent 1100 with autosampler, UV-detector
Column: Reprosil C-18-AQ; 5μ, 200*4 mm (Fa. Dr. Maisch) with precolumn: • Column Temp.: 20° C. • Mobile Phase: Acetonitrile/THF/Water (54/38/8 v/v/v) • Flow Rate: 1.0 ml/min • Gradient Program: Isocratic • Detection: UV-Detector; 323 nm • Injection Volume: 5 μl; Autosampler • Retention Time: 1.6 min
Reagents: • Acetonitrile (Roth, gradient grade) • THF (Roth, gradient grade) • 2-Propanol (Roth, gradient grade) • Water, twice-distilled • Retinol 50C (BASF, Cosmetic Quality, approx, 50%)—standard • (If not stated otherwise the reagents are used as purchased without any further purification)

[2] = test system: Inner forearm; assay: Reduction of irritation potential, 5 D Intravitaltomography (taum); format: in vivo, human; conditions: 0.3% of retinol occlusively applied onto inner forearm; taum at start point and 48 h after application
Excerpt: Reduction of Irritation can be detected by any known analytical test method which can be e.g. 5D IVT, ELISA, Patch Test. HET Cam Test using skin, skin models, cells. This effect depends on the active lipophilic ingredient encapsulated.
Data which measured in accordance with the method as described in “From Morphology To Biochemical State—Intravital Multiphoton Fluorescence Lifetime Imaging Of Inflamed Human Skin”, by Volker Huck et al. published in www.nature.com/scientificreports, 23 Mar. 2016; the disclosure of which is hereby incorporated by reference. Referring now to FIGS. 3 and 4, FIGS. 3 and 4 illustrate the Taum measurement. The delivery system of the invention can achieve Tau values of about 100 ps to about 3000 ps, about 300 ps to about 2500 ps and in some cases about 500 ps to about 1500 ps in the Stratum granulosum and Stratum spinosum.

stabilization of Retinol (HPLC) [1]: degrades
SMILES: CC1=C(/C=C/C(C)=C/C=C/C(C)=C/CO)C(C)(C)CCC1 [retinol, Retinol]
irritation potential [2]: significantly higher

Source: patent publication US20230301896A1, “COMPOSITION FOR PENETRATING SUGAR BASED DELIVERY SYSTEM” (Evonik Operations GmbH, priority 2015, published 2023)
